Reference: US10709743B2, “Pharmaceutical wound healing composition” (Council of Scientific and Industrial Research, priority 2015, dated 2020)
“And” between values parts separate entries of the source, which are not always exact repeats. Identical values can stand only once.

Legend:
Wister rats (Male) [1] = test: Incision wound model, wound size measurement; assay type: in vivo; set-up: unit not given here; details: average of six animals
Method: The animals were housed in a standard individual metal cages and room was maintained at 22±1° C. with an alternating 12 h light-dark cycle. Food and water were provided ad libitum. All the experiments on animals were conducted after obtaining permission from Institutional Animal Ethical Committee of the Institute.
Animals were divided into two groups (six animals each).
All animals of two groups were anesthetized with an aesthetic ether, and a paravertebral long incision of 4.4 cm length were made through the skin and cutaneous muscle at a distance about 1.5 cm from the middle on right side of the depilated back.
All groups (A and B) of animals received sufficient amount of formulation applied externally (as depicted in table No. 2). All the test formulations were applied once a day for 10 days starting from the day of incision. Wound-healing property was evaluated by wound length and wound closure time.
Every alternative days wound size contraction was measured. By placing transparent blotting paper carefully on the wounded part of rats marking were done by permanent marker and size of reduction in wound noted.

Wister rats (Male) [2] = test: Incision wound model, wound size measurement; assay type: in vivo; set-up: unit not given here; details: individual animals SR NO 1-6, applied once a day
[3] = cited from earlier work

Row | Substance | wound size AVG (Wister rats (Male) [1]; DAY 2) | wound size AVG (Wister rats (Male) [1]; DAY 10) | wound size AVG (Wister rats (Male) [1]; DAY-4) | wound size AVG (Wister rats (Male) [1]; DAY-6) | wound size AVG (Wister rats (Male) [1]; DAY-8) | wound size (Wister rats (Male) [2]; DAY 2) | wound size (Wister rats (Male) [2]; DAY 10) | wound size (Wister rats (Male) [2]; DAY-4) | wound size (Wister rats (Male) [2]; DAY-6) | wound size (Wister rats (Male) [2]; DAY-8) | scavenging of hydroxyl, superoxide and DPPH radicals ([3]; ESR and ultraviolet spectrophotometry) | antioxidative activity on the peroxidation of linoleic acid ([3]; linoleic acid system)
1 | Sericin [Group C] | 26.83 | 6.5 | 24.33 | 23.33 | 16.33 | 26 (2×) and 24 and 25 and 30 (2×) | 9 and 6 (3×) and 7 and 5 | 21 and 23 (2×) and 27 and 28 and 24 | 20 and 22 (2×) and 25 and 27 and 24 | 18 and 16 (3×) and 17 and 15 |  | 
2 | silk sericin |  |  |  |  |  |  |  |  |  |  | strong scavenging capacity | potent antioxidative activity
